ChEMBL document CHEMBL3124892, “Polyphenols bearing cinnamaldehyde scaffold showing cell growth inhibitory effects on the cisplatin-resistant A2780/Cis ovarian cancer cells” (Bioorg Med Chem, 2014)
Active and inactive are the calls of the source. The rule behind the calls is not given here.

Experiments:
[1] = Growth inhibition of cisplatin-resistant human A2780cis cells after 7 days by crystal violet staining based clonogenic assay; type: functional; details: A2780cisR, 168 h
[2] = Cell cycle arrest in cisplatin-resistant human A2780cis cells assessed as accumulation at G2/M phase at 20 uM after 24 hrs by propidium iodide staining based flow cytometry (reference value: 29.47%); type: functional; details: A2780cisR
[3] = Cell cycle arrest in cisplatin-resistant human A2780cis cells assessed as accumulation at sub-G1 phase at 20 uM after 24 hrs by propidium iodide staining based flow cytometry (reference value: 7.76%); type: functional; details: A2780cisR
A2780cisR [4] = assay: Induction of apoptosis in cisplatin-resistant human A2780cis cells assessed as stimulation of caspase 7 cleavage at 20 uM after 24 hrs by western blot analysis; type: functional, cell-based
A2780cisR [5] = assay: Induction of apoptosis in cisplatin-resistant human A2780cis cells assessed as increase in cleaved active caspase-7 level at 20 uM after 24 hrs by immunofluorescent microscopy; type: functional, cell-based
[6] = Cell cycle arrest in cisplatin-resistant human A2780cis cells assessed as accumulation at G1 phase at 20 uM after 24 hrs by propidium iodide staining based flow cytometry (reference value: 45.33%); type: functional; details: A2780cisR
[7] = Cell cycle arrest in cisplatin-resistant human A2780cis cells assessed as accumulation at S phase at 20 uM after 24 hrs by propidium iodide staining based flow cytometry (reference value: 17.24%); type: functional; details: A2780cisR
A2780cisR [8] = assay: Antiproliferative activity against cisplatin-resistant human A2780cis cells at 1 to 20 uM by cell counting kit-8 analysis; type: functional, cell-based; details: TDE = time-dependent effect
A2780cisR [9] = assay: Induction of apoptosis in cisplatin-resistant human A2780cis cells assessed as shrunken and fragmented nuclei with condensed chromatin at 20 uM after 24 hrs by TO-PRO-3 iodide staining based immunofluorescent microscopy; type: functional, cell-based
A2780cisR [10] = assay: Induction of apoptosis in cisplatin-resistant human A2780cis cells assessed as PARP cleavage at 20 uM after 24 hrs by western blot analysis; type: functional, cell-based
A2780cisR [11] = assay: Antiproliferative activity against cisplatin-resistant human A2780cis cells after 24 to 48 hrs by cell counting kit-8 analysis; type: functional, cell-based
Aurora kinase A = target: T1, Aurora kinase A (Homo sapiens, UniProt O14965); assay: Inhibition of human aurora A kinase using LRRASLG as substrate by scintillation counting in presence of [gamma-33P]ATP
T1 sequence (O14965 whole entry): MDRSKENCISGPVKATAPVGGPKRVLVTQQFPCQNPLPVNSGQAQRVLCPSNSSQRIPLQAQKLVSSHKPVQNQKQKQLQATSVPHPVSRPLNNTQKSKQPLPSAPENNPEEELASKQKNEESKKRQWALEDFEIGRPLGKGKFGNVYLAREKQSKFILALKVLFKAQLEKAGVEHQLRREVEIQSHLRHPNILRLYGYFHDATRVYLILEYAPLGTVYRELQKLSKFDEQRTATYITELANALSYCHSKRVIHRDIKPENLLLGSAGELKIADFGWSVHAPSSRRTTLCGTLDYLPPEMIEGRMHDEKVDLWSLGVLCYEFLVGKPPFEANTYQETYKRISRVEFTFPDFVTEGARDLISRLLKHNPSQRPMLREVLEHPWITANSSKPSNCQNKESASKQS

| SMILES | GI50 ([1]; read-out: GI50) [µM] | GI50 ([1]; read-out: pGI50 (converted)) [µM] | further results |
| --- | --- | --- | --- |
| COc1ccc(/C=C/C(=O)c2ccccc2O)c(OC)c1 | 15 | 14.8 | – |
| COc1ccc(O)c(C(=O)/C=C/c2cc(OC)c(OC)cc2OC)c1 | > 20 | 20 | – |
| COc1ccc(/C=C/C(=O)c2c(O)cccc2OC)c(OC)c1 | 9.55 | 9.57 | – |
| COc1cc(/C=C/C(=O)c2c(O)cccc2OC)cc(OC)c1 | 11.4 | 11.5 | – |
| COc1ccc2c(c1)OCC(C=O)=C2 | > 20 | 20 | – |
| COc1ccc(/C=C/C(=O)c2cc(OC)ccc2O)c(OC)c1 | 19.8 | 20 | – |
| COc1cccc(/C=C/C(=O)c2ccccc2O)c1OC | 14.4 | 14.5 | – |
| COc1ccccc1/C=C/C(=O)c1c(O)cccc1OC | 9.55 | 9.57 | – |
| COc1ccc(/C=C/C(=O)c2c(O)cccc2OC)cc1 | 15.4 | 15.5 | – |
| COc1ccc(/C=C/C(=O)c2ccccc2O)c(OC)c1OC | 14.3 | 14.5 | – |
| COc1ccccc1/C=C/C(=O)c1ccccc1O | 11.7 | 11.8 | – |
| COc1ccc2c(c1)C=C(C=O)CO2 | > 20 | 20 | – |
| COc1ccc2c(c1)C=C(C(C)=O)CO2 | > 20 | 20 | – |
| COc1cc(OC)c(OC)cc1/C=C/C(=O)c1c(O)cccc1OC | 19.2 | 19.1 | – |
| COc1cc(OC)c(/C=C/C(=O)c2cc(OC)ccc2O)c(OC)c1 | 3.95 | 3.99 | Activity [2]: 68.3%; Activity [3]: 16.5%; Activity (A2780cisR [4]): Active; Activity (A2780cisR [5]): Active; Activity [6]: 3.53%; Activity [7]: 4.09%; Activity (A2780cisR [8]): tde; Activity (A2780cisR [9]): Active; Activity (A2780cisR [10]): Active; Activity (A2780cisR [11]): Dose-dependent effect |
| O=C(/C=C/c1ccccc1)c1ccccc1O [2'-HYDROXYCHALCONE] | 13.5 | 13.5 | – |
| COc1cc(/C=C/C(=O)c2ccccc2O)cc(OC)c1 | 13.7 | 13.8 | – |
| COc1cc(/C=C/C(=O)c2cc(OC)ccc2O)cc(OC)c1 | 11.3 | 11.2 | – |
| COc1cccc(/C=C/C(=O)c2cc(OC)ccc2O)c1 | 10.1 | 10.3 | – |
| COc1cc(OC)c(/C=C/C(=O)c2c(O)cccc2OC)c(OC)c1 | 3.87 | 3.9 | Activity [2]: 71%; Activity [3]: 17.1%; Activity (A2780cisR [4]): Active; Activity [6]: 3.36%; Activity [7]: 4.33%; Activity (A2780cisR [8]): tde; Activity (A2780cisR [10]): Active; IC50 (Aurora kinase A): 66.4 µM; Activity (A2780cisR [11]): Dose-dependent effect |
| COc1ccc(/C=C/C(=O)c2ccccc2O)cc1 | 15.9 | 15.9 | – |
| COc1cccc(/C=C/C(=O)c2c(O)cccc2OC)c1 | 9.64 | 9.57 | – |
| COc1ccc(/C=C/C(=O)c2c(O)cccc2OC)c(OC)c1OC | 18.4 | 18.2 | – |
| COc1ccc(O)c(C(=O)/C=C/c2cccc(OC)c2OC)c1 | 17 | 17 | – |
| COc1cccc(/C=C/C(=O)c2c(O)cccc2OC)c1OC | 9.67 | 9.8 | – |
| COc1ccc2c(c1)OCC(C(C)=O)=C2 | > 20 | 20 | – |
